This is an account of results in patent publication US20250368648A1, “MULTI-CYCLIC IRAK AND FLT3 INHIBITING COMPOUNDS AND USES THEREOF” (CHILDREN'S HOSPITAL MEDICAL CENTER, priority 2022, published 2025).

Read-outs that look alike come from different tables or passages of the source. A value given as a limit tells only on which side of the number the result lay.

Broadly, the IC50 is the midpoint of a concentration-inhibition curve.

In assay [1] the test system is MOLM14 D835Y cells. Put plainly: MOLM14 D835Y cell viability assay (Cell Titer Glo). It counts as cell-based. For orientation: ATP-based viability assays read luminescence as a measure of living cells.
For assay [2], the target named is T1, FLT3 (Homo sapiens, UniProt P36888).
T1 sequence (P36888 27-993): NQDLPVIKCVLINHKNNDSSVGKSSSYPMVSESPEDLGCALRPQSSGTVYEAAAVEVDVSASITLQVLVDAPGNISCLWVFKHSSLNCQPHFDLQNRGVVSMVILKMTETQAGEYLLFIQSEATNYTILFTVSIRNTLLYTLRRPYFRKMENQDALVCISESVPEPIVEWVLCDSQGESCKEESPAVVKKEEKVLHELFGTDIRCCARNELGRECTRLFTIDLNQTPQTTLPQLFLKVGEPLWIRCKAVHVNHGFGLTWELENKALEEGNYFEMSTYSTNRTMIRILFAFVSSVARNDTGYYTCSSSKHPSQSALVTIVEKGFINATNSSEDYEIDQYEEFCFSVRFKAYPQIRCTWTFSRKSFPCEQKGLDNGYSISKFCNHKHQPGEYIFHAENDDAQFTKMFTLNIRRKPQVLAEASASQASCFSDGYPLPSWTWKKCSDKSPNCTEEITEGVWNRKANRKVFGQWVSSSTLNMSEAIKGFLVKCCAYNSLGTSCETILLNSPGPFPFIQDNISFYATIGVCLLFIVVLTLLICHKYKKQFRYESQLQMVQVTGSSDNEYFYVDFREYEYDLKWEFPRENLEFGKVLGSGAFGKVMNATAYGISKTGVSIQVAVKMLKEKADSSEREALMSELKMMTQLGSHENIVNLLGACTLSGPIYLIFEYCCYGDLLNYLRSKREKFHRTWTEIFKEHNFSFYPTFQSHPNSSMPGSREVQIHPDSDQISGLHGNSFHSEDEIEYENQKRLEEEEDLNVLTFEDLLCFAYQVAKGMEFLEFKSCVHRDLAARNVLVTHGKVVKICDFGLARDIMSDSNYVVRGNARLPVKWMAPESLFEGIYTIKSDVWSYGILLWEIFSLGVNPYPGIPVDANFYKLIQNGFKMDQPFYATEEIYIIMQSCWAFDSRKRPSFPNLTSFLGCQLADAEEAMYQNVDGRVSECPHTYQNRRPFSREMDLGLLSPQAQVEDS
In words: RBC HotSpot Kinase Assay, FLT3. Format: biochemical. The arrangement: purchased RBC (Reaction Biology) HotSpot assay. To be noted: HotSpot functional assay, isolated kinase enzyme, 33P-ATP. Summed up:
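Isolated kinases, possibly truncated or lacking regulatory receptor regions, were preincubated with compound for 20 min at room temp in 20 mM Hepes pH 7.5, 10 mM MgCl2, 1 mM EGTA, 2 mM DTT, 1% DMSO. Reactions were started with ^33P-ATP and run 2 h at room temperature; activity was read by P81 filter binding.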

For assay [3], the system named is NF-κB. In words: NF-kB assay in THP-1-Blue NF-κB cells (SEAP reporter). Format: cell-based. As to the method:
THP-1-Blue NF-κB cells (InvivoGen) carrying a stable integrated NF-κB-inducible secreted embryonic alkaline phosphatase (SEAP) reporter construct were plated at a concentration of 1×10^5 cells per well. The cells were stimulated with Pam3CSK4 (1 ng/mL) or hIL1B (Ing/mL). After 10-20 minutes, the cells were then treated with vehicle (DMSO) or serial dilutions of the test compounds (10 doses tested for each test compound, with a 1:10 dilution series starting at 1 μM or 3 μM) with a final volume of 200 μL for 24 hours at 37° C. After 24 hours, the cells were centrifuged and 20 IL supernatant was incubated with 180 μL QUANTI-Blue reagent at 37° C. for 30-60 minutes. The levels of NF-κB-induced was measured in a microplate reader at 620 nm.

[4] abbreviates: THP-1-Blue NF-κB cells stimulated with Pam3CSK4, 24 hours, read-out: NF-κB Pam3SCK4 IC50.
[5] abbreviates: THP-1-Blue NF-κB cells stimulated with hIL1B, 24 hours, read-out: NF-κB IL1B IC50.

As for `COc1cc2ncc(-c3nc(N[C@H]4CNCC[C@@H]4F)c(F)cc3F)n2nc1C(C)(O)C(F)(F)F` (single isomer, unassigned) [Compound 77a], the IC50 was 8 nM in assay [1] (48 hours), less than 0.5 nM in assay [2], 166 nM in assay [3] (setting [4]) and 254 nM in assay [3] (setting [5]).

For the molecule `COc1cc2ncc(-c3nc(N[C@H]4CNC[C@@H]4F)c(F)cc3F)n2nc1C(C)(O)C(F)(F)F` (single isomer, unassigned) [Compound 80a], the results for the IC50 in assay [1] (48 hours) and in assay [2] were 23 nM and less than 0.5 nM, respectively.

For the molecule `COc1cc2ncc(-c3nc(N[C@@H]4CCCNC4)c(F)cc3F)n2nc1C(C)(O)C(F)(F)F` (single isomer, unassigned) [Compound 81a], the figures for the IC50 in assay [1] (48 hours) and in assay [2] were 6 nM and less than 0.5 nM, respectively.

`COc1cc2ncc(-c3nc(N[C@H]4CNCC[C@@H]4F)c(F)cc3F)n2nc1C1CC2(CCC2)C1` [Compound 10a, 3,5-difluoro-N-((3S,4S)-4-fluoropiperidin-3-yl)-6-(7-methoxy-6-(spiro[3.3]heptan-2-yl)imidazo[1,2-b]pyridazin-3-yl)pyridin-2-amine] returned a concentration for half-maximal inhibition (IC50) in assay [2] of less than 0.5 nM.

In assay [2], `COc1cc2ncc(-c3nc(N[C@H]4CNC[C@@H]4F)c(F)cc3F)n2nc1C1CC2(CCC2)C1` [Compound 12a, 3,5-difluoro-N-((3S,4S)-4-fluoropyrrolidin-3-yl)-6-(7-methoxy-6-(spiro[3.3]heptan-2-yl)imidazo[1,2-b]pyridazin-3-yl)pyridin-2-amine] showed an IC50 of less than 0.5 nM.

Take `COc1cc2ncc(-c3nc(N[C@H]4CNCC[C@@H]4F)c(F)cc3F)n2nc1C1CCC1` [Compound 15a, 6-(6-cyclobutyl-7-methoxyimidazo[1,2-b]pyridazin-3-yl)-3,5-difluoro-N-((3S,4S)-4-fluoropiperidin-3-yl)pyridin-2-amine]: the IC50 is 18 nM in assay [1] (Homo sapiens, MOLM-14, 48 h); less than 0.5 nM in assay [2]; 108 nM in assay [3] (setting [4]); 136 nM in assay [3] (setting [5]).

Consider `COc1cc2ncc(-c3nc(N[C@H]4CNCC[C@@H]4F)c(F)cc3F)n2nc1C12CC(C1)C2` [Compound 67a, 6-(6-(bicyclo[1.1.1]pentan-1-yl)-7-methoxyimidazo[1,2-b]pyridazin-3-yl)-3,5-difluoro-N-((3S,4S)-4-fluoropiperidin-3-yl)pyridin-2-amine], for which the IC50 in assay [2] is less than 0.5 nM; in assay [3] (setting [4]), 284 nM; in assay [3] (setting [5]), 331 nM.
